Results reported in PMC6434189, “Peperomin E and its orally bioavailable analog induce oxidative stress-mediated apoptosis of acute myeloid leukemia progenitor cells by targeting thioredoxin reductase” (Redox Biology, 2019).

How the values were obtained:
NADPH-reduced TrxR1 = target: T1, NADPH-reduced TrxR1 (Homo sapiens, UniProt Q16881); assay: Bio-layer interferometry (BLI) binding assay, TrxR1
T1 construct: purchased Abcam ab204206
T1 sequence (Q16881 1-499 isoform Q16881-5): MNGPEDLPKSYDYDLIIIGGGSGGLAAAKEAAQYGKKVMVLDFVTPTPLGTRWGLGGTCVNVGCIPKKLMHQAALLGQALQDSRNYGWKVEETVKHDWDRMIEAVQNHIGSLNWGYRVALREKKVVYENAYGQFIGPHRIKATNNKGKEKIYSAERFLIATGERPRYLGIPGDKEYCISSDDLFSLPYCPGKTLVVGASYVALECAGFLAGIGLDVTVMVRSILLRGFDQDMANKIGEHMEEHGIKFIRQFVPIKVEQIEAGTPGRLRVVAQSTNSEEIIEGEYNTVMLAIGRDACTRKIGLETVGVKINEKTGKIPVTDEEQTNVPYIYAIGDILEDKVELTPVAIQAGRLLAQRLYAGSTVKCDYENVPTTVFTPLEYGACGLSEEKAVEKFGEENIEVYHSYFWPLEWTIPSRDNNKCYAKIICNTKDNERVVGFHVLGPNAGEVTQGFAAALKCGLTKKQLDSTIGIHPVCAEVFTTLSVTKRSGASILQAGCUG
Description: The binding kinetics of PepE or PepA to purified recombinant proteins were determined using BLI on an Octet RED 96 system (ForteBio, Shanghai, China) following the manufacturer's protocol. All interaction analyses were performed at 25 °C in PBS with 0.2% DMSO. Purified recombinant proteins (0.9 μM, the TrxR1 full length and TrxR1 protein fragment were pre-reduced by 400 μM of NADPH before test) were pre-labeled with biotin using […] (Abcam) following the manufacturer's instruction. Loading of the Dip and Read Super Streptavidin (SSA) Biosensors (ForteBio) were conducted by exposing biotinylated proteins to biosensor tips for 2 h. The 96-well microplates used in the Octet were filled with 200 μL sample or buffer per well and agitated at 1000 rpm. The loaded biosensors were washed in buffer for 600 s and transferred to wells containing PepE at concentrations of 0.625, 1.25, 2.5, 5, and 10 μM or PepA at concentrations of 1.25, 2.5, 5, 10 and 20 μM, respectively, in the buffer. […] Reference measurements were conducted using the buffer instead of PepE (or PepA). A parallel set of SA unloaded biosensors was prepared to act as a control. The sample-sensorgrams were corrected by subtracting the double reference curve. Kinetic parameters (Kon and Kdis) and affinity (KD) were determined from a global fit to a 1:1 binding model of the data between proteins and PepE using Octet software (ForteBio).

Sec residue in TrxR1 = target: T2, Sec residue in TrxR1 (Homo sapiens, UniProt Q16881); assay: BIAM labeling assay; format: biochemical; conditions: pH 6.5; PepE 1, 5, 10 μM; DNCB 5 μM
T2 construct: purchased Abcam ab204206
T2 sequence (Q16881 1-499 isoform Q16881-5): T1 sequence (Q16881 1-499 isoform Q16881-5)
Description: To further assess whether the Sec residue in TrxR1 was the modified site of PepE. The BIAM labeling assay was performed according to previous report. Briefly, 100 μM BIAM stock solution in 100 mM Tris-HCl, 1 mM EDTA buffer (pH = 6.5) was freshly prepared before each test. The TrxR1 protein (1 μM) was incubated with different concentrations (1, 5, 10 μM) of PepE or 5 μM of DNCB (positive control) and DMSO (negative control) in 50 mM Tris-HCl, 1 mM EDTA buffer (pH = 7.5) and 400 μM NADPH at 37 °C. After incubation, 4 μL of the reaction mixture was withdrawn and added mixed with 20 μM of BIAM solution in 100 mM Tris-HCl, 1 mM EDTA assay buffer (pH = 6.5) for 30 min at 37 °C to allow selective alkylation of free Sec residues. The reaction was stopped by adding the IAA solution (final concentration 50 mM). The samples were then denatured in SDS buffer, boiled and subjected to SDS-PAGE and western-blotting on a 7.5% gel, and the separated proteins were transferred to nitrocellulose membrane. The enzymes labeled with BIAM were detected with HRP-conjugated streptavidin and enhanced chemiluminescence detection. The bands were analyzed using Gel-pro 32 software.

recombinant human TrxR1 = target: T3, recombinant human TrxR1 (Homo sapiens, UniProt Q16881); assay: NADPH oxidative activity assay; format: biochemical; conditions: 5 μM, TrxR1 0.2 μM
T3 construct: purchased Abcam ab204206
T3 sequence (Q16881 1-499 isoform Q16881-5): T1 sequence (Q16881 1-499 isoform Q16881-5)
Description: The NADPH oxidative activity by TrxR1 in the presence of PepE was performed according to the previous reports. Briefly, the recombinant human TrxR1 protein (0.2 μM) was incubated with either 5 μM of PepE or 5 μM of DNCB at room temperature in assay buffer (50 mM Tris-HCl, 1 mM EDTA, pH = 7.5), same amount of DMSO was used as negative control. NADPH was then added (final concentration was set at 200 μM) and the absorbance was monitored at 340 nm for 30 min using the SpectraMax i3x microplate reader (Molecular Devices), the molar extinction coefficient was set as 6200 M^−1cm^−1. The linear decrease in NADPH absorbance was used for calculating NADPH consumption rate and expressed as NADPH μM^−1min^−1enzyme μM^−1.

[1] = design: method as in earlier work; conditions: within 24 h; cited from earlier work
AML CD34+ cells = assay: Release study of DMAPE in vitro, AML CD34+ cells (UFLC-MS/MS); format: in vitro ADME, human; conditions: 10 μM DMAPE, 24 h
Description: 1 × 10^5 cells (including sorted CD34^+ KG-1a cells and NBM cells) were seeded at 48-well plates (Corning, New York, USA) in the IMDM-based serum-free media for 1 h. The cells were then incubated with 10 μM DMAPE at 37 °C in the 5% CO2 incubator for 0, 12 or 24 h. The culture supernatant was collected by centrifugation at 3000 rpm for 10 min and evaporated to dryness at 30 °C using a CentriVap vacuum centrifugal concentrator. The resulting residue was reconstituted in 100 μL methanol, vortexed and centrifuged at 12000 rpm for 10 min. A 2 μL aliquot of the supernatant was injected for UFLC-MS/MS analysis (UFLC-MS/MS analysis method same as the pharmacokinetic study of DMAPE, see Additional method in Supplementary Materials).

kon (NADPH-reduced TrxR1) | Kd (NADPH-reduced TrxR1; NADPH-reduced TrxR1 0.9 μM, 25 °C) | Kd (NADPH-reduced TrxR1; Table S3) | koff (NADPH-reduced TrxR1; read-out: Kdis) | BIAM alkylation of Sec residue of TrxR1 (Sec residue in TrxR1) | consumption of NADPH by TrxR1 relative to the control (recombinant human TrxR1) | DMAPE in culture with AML CD34+ cells (AML CD34+ cells) | Structure (SMILES) | stability in the cell cultural media (without cells) [1]
12400 M⁻¹ s⁻¹ | 340 nM | 341 nM | 0.00423 s⁻¹ | significantly block | ~7 fold |  | C=C1C(=O)OC[C@H]1C(c1cc(OC)c2c(c1)OCO2)c1cc(OC)c2c(c1)OCO2 [PepE, Peperomin E] | 
 |  |  |  |  |  | could not be detected | COc1cc(C(c2cc(OC)c3c(c2)OCO3)[C@@H]2COC(=O)[C@H]2CN(C)CCO)cc2c1OCO2 [DMAPE, (2S,3S)-6-Methyl (hydroxyethyl) amino-2,6-dihydropeperomin E] | stable
